{
  "source": "patent US20080318993A1",
  "about": "(Endo Pharmaceuticals, Inc., priority 2007, published 2008)",
  "key": {"[1]": {"details": "10 mg oral dose, cited from earlier work"}, "[2]": {"details": "orally administered (oral solution), hydrochloride, cited from earlier work"}, "[3]": {"assay": "Example 5: urinary excretion of oxymorphone and metabolites in hepatic impairment vs healthy controls", "details": "for mean amount excreted in the urine: percent of administered dose, through 120 hours", "description": "(§1) While in the clinic, the subjects were to refrain from strenuous physical activity."}, "[4]": {"assay": "Example 5: plasma pharmacokinetics of EN3202 20 mg in hepatic impairment vs healthy controls", "details": "for AUC / AUC(0-t) / Cmax / Tmax / half-life: human, plasma, oral, 20 mg; for AUC(0-t): AUCT; for Tmax: median (range); for increase in average AUC relative to controls: arithmetic means; for AUC increase relative to healthy controls / Cmax increase relative to healthy controls: log-transformed comparison", "description": "as §1\nAll study medications were supplied by the sponsor. […] A single 20 mg dose EN3202 was administered following an overnight fast (from approximately 22:00 on the evening prior to dose administration) at approximately 08:00, and participants were not allowed to eat until at least four hours after the dose.\nAll doses were administered with 240 mL of ambient water. Participants were instructed to drink all of the water.\nPharmacokinetic parameters were calculated using model-independent methods.\nAll pharmacokinetic results are summarized using appropriate descriptive statistics. […] One-way ANOVA was conducted using the model PKVAR=group, where group was mild hepatic impairment, moderate-severe hepatic impairment, or healthy control. Point estimates of the impaired versus control group differences and the corresponding 90% confidence limits were constructed."}, "[5]": {"details": "moderate-severe hepatic impairment"}, "[6]": {"details": "Moderate-Severe Impairment, mean (SD)"}, "[7]": {"details": "Subject 006 (Child-Pugh Class B)"}, "[8]": {"details": "Subject 007 (Child-Pugh Class A)"}, "[9]": {"details": "Subject 009 (Child-Pugh Class B)"}, "[10]": {"details": "Subject 010 (Child-Pugh Class B)"}, "[11]": {"details": "Subject 011 (Child-Pugh Class C)"}},
  "note": "Where “and” joins values, the source holds several entries; their conditions need not be identical. Identical values can stand only once. Like-named read-outs stand apart in the source and are kept apart here.",
  "data": [
    {"smiles": "CN1CC[C@]23c4c5ccc(O)c4O[C@H]2C(=O)CC[C@@]3(O)[C@H]1C5.Cl", "note": "[Oxymorphone, 14-hydroxydihydromorphinone hydrochloride]", "values": [
      {"measurement": "recovery in the first 24 hours, of the amount recovered", "setting": "[1]", "value": 82, "unit": "%"},
      {"measurement": "recovery in the first 24 hours, of the dose", "setting": "[1]", "value": "~42", "unit": "%"},
      {"measurement": "unchanged oxymorphone recovered in the urine", "setting": "[1]", "value": 1.9, "unit": "%"},
      {"measurement": "administered dose recovered in the urine", "setting": "[1]; 120-hour collection interval, 10 healthy subjects, average", "value": 49, "unit": "%"},
      {"measurement": "Conjugated oxymorphone, average of the administered dose", "setting": "[1]; urine", "value": 44.1, "unit": "%"},
      {"measurement": "oral / average absolute bioavailability", "setting": "[2]", "value": "about 10%"},
      {"measurement": "oral / average absolute bioavailability", "setting": "[2]; listed as oxymorphone", "value": "approximately 10%"},
      {"measurement": "urinary excretion essentially complete by", "setting": "[3]; after single 20 mg dose", "value": "by the end of the 48 to 72 hour collection interval"},
      {"measurement": "mean amount excreted in the urine", "setting": "[3]; control group", "value": 0.5, "unit": "%"},
      {"measurement": "administered dose excreted unchanged in the urine", "setting": "[3]; discussion statement", "value": "Less than 1%"},
      {"measurement": "mean amount excreted in the urine", "setting": "[3]; mild hepatic impairment", "value": 1.2, "unit": "%"},
      {"measurement": "increase in the amount excreted in the urine", "setting": "[3]; [5]", "value": "approximately 8 fold"},
      {"measurement": "mean amount excreted in the urine", "setting": "[3]; [5]", "value": 4.1, "unit": "%"},
      {"measurement": "λz", "setting": "[4]; Healthy Controls, mean (SD)", "value": "0.0970 (0.0540) hr^−1"},
      {"measurement": "CL/F", "setting": "[4]; Healthy Controls, mean (SD), hydrochloride", "value": "21.15 (13.54) L/min"},
      {"measurement": "CL/F", "setting": "[4]; Healthy Controls, mean (SD), listed as oxymorphone, hydrochloride", "value": 21.15, "unit": "L/min"},
      {"measurement": "CL/F", "setting": "[4]; Mild Impairment, mean (SD)", "value": "13.30 (5.81) L/min"},
      {"measurement": "λz", "setting": "[4]; Mild Impairment, mean (SD)", "value": "0.0830 (0.0392) hr^−1"},
      {"measurement": "CL/F", "setting": "[4]; [6]", "value": "7.17 (5.08) L/min"},
      {"measurement": "λz", "setting": "[4]; [6]", "value": "0.0970 (0.0365) hr^−1"},
      {"measurement": "CL/F", "setting": "[4]; [7]", "value": 7.34, "unit": "L/min"},
      {"measurement": "CL/F", "setting": "[4]; [8]", "value": 4.45, "unit": "L/min"},
      {"measurement": "CL/F", "setting": "[4]; [9]", "value": 1.38, "unit": "L/min"},
      {"measurement": "CL/F", "setting": "[4]; [10]", "value": 7.63, "unit": "L/min"},
      {"measurement": "CL/F", "setting": "[4]; [11]", "value": 1.33, "unit": "L/min"},
      {"measurement": "AUC", "setting": "[4]; AUC, Healthy Controls, mean (SD), single 20 mg EN3202, fasting", "value": 20.6, "unit": "ng·h/mL"},
      {"measurement": "AUC", "setting": "[4]; AUC, Mild Impairment, mean (SD), single 20 mg EN3202, fasting", "value": 32.1, "unit": "ng·h/mL"},
      {"measurement": "AUC", "setting": "[4]; AUC, Moderate-Severe Impairment, mean (SD), single 20 mg EN3202, fasting", "value": 106, "unit": "ng·h/mL"},
      {"measurement": "AUC", "setting": "[4]; AUC, Subject 006 (Child-Pugh Class B)", "value": 45.4, "unit": "ng·h/mL"},
      {"measurement": "AUC", "setting": "[4]; AUC, Subject 007 (Child-Pugh Class A)", "value": 74.8, "unit": "ng·h/mL"},
      {"measurement": "AUC", "setting": "[4]; AUC, Subject 009 (Child-Pugh Class B)", "value": 241, "unit": "ng·h/mL"},
      {"measurement": "AUC", "setting": "[4]; AUC, Subject 010 (Child-Pugh Class B)", "value": 43.7, "unit": "ng·h/mL"},
      {"measurement": "AUC", "setting": "[4]; AUC, Subject 011 (Child-Pugh Class C)", "value": 250, "unit": "ng·h/mL"},
      {"measurement": "AUC(0-t)", "setting": "[4]; Healthy Controls, mean (SD)", "value": 18, "unit": "ng·h/mL"},
      {"measurement": "AUC(0-t)", "setting": "[4]; Mild Impairment, mean (SD)", "value": 30, "unit": "ng·h/mL"},
      {"measurement": "AUC(0-t)", "setting": "[4]; [6]", "value": 104, "unit": "ng·h/mL"},
      {"measurement": "Cmax", "setting": "[4]; Healthy Controls, mean (SD)", "value": 1.73, "unit": "ng/mL"},
      {"measurement": "Cmax", "setting": "[4]; Mild Impairment, mean (SD)", "value": 3.98, "unit": "ng/mL"},
      {"measurement": "Cmax", "setting": "[4]; [6]", "value": 9.16, "unit": "ng/mL"},
      {"measurement": "Cmax", "setting": "[4]; [7]", "value": 4.31, "unit": "ng/mL"},
      {"measurement": "Cmax", "setting": "[4]; [8]", "value": 11.4, "unit": "ng/mL"},
      {"measurement": "Cmax", "setting": "[4]; [9]", "value": 19.6, "unit": "ng/mL"},
      {"measurement": "Cmax", "setting": "[4]; [10]", "value": 3.72, "unit": "ng/mL"},
      {"measurement": "Cmax", "setting": "[4]; [11]", "value": 23.6, "unit": "ng/mL"},
      {"measurement": "Cmax", "setting": "[4]; range among subjects, control group", "value": "0.64 to 2.83", "unit": "ng/mL"},
      {"measurement": "Cmax", "setting": "[4]; range among subjects, mild impairment", "value": "0.86 to 11.4", "unit": "ng/mL"},
      {"measurement": "Cmax", "setting": "[4]; range among subjects, moderate-severe impairment", "value": "1.66 to 23.6", "unit": "ng/mL"},
      {"measurement": "AUC", "setting": "[4]; Individual AUC results, range, healthy controls", "value": "6.18 to 33.9", "unit": "ng·h/mL"},
      {"measurement": "AUC", "setting": "[4]; Individual AUC results, range, subjects with mild impairment", "value": "15.3 to 74.8", "unit": "ng·h/mL"},
      {"measurement": "AUC", "setting": "[4]; Individual AUC results, range, subjects with moderate-severe impairment", "value": "24.9 to 250", "unit": "ng·h/mL"},
      {"measurement": "Tmax", "setting": "[4]; Healthy Controls", "value": 3.5, "unit": "h"},
      {"measurement": "Tmax", "setting": "[4]; Mild Impairment", "value": 1.75, "unit": "h"},
      {"measurement": "Tmax", "setting": "[4]; Moderate-Severe Impairment", "value": 1.5, "unit": "h"},
      {"measurement": "half-life", "setting": "[4]; T½, Healthy Controls, mean (SD)", "value": 9.98, "unit": "h"},
      {"measurement": "half-life", "setting": "[4]; T½, Mild Impairment, mean (SD)", "value": 11.8, "unit": "h"},
      {"measurement": "half-life", "setting": "[4]; T½, Moderate-Severe Impairment, mean (SD)", "value": 8.04, "unit": "h"},
      {"measurement": "AUC", "setting": "[4]; mean AUC after excluding Subject 007, mild group", "value": 23.6, "unit": "ng·h/mL"},
      {"measurement": "AUC", "setting": "[4]; median AUC, control group", "value": 23.8, "unit": "ng·h/mL"},
      {"measurement": "AUC", "setting": "[4]; median AUC, mildly-impaired group", "value": 24.7, "unit": "ng·h/mL"},
      {"measurement": "half-life", "setting": "[4]; plasma elimination half-life, Subject 009", "value": 6.96, "unit": "h"},
      {"measurement": "half-life", "setting": "[4]; plasma elimination half-life, Subject 011", "value": 10.7, "unit": "h"},
      {"measurement": "increase in average AUC relative to controls", "setting": "[4]; mild hepatic impairment", "value": "approximately 1.56 fold"},
      {"measurement": "AUC increase relative to healthy controls", "setting": "[4]; mild hepatic impairment", "value": 1.52, "unit": "fold"},
      {"measurement": "elimination rate constant ratio, 90% confidence limits", "setting": "[4]; mild impairment", "value": "0.58-1.31"},
      {"measurement": "elimination rate constant, ratio to healthy controls", "setting": "[4]; mild impairment", "value": 0.87},
      {"measurement": "Cmax increase relative to healthy controls", "setting": "[4]; mild impairment", "value": 1.68, "unit": "fold"},
      {"measurement": "elimination rate constant ratio, 90% confidence limits", "setting": "[4]; moderate-severe impairment", "value": "0.74-1.66"},
      {"measurement": "elimination rate constant, ratio to healthy controls", "setting": "[4]; moderate-severe impairment", "value": 1.11},
      {"measurement": "increase in average AUC relative to controls", "setting": "[4]; moderate-severe impairment", "value": 5.13, "unit": "fold"},
      {"measurement": "Cmax increase relative to healthy controls", "setting": "[4]; moderate-severe impairment", "value": 3.41, "unit": "fold"},
      {"measurement": "AUC increase relative to healthy controls", "setting": "[4]; moderate-to-severe hepatic impairment, hydrochloride", "value": "3.61 fold and 3,6 fold"},
      {"measurement": "AUC increase in individual subjects", "setting": "[4]; two of six subjects with moderate or severe liver disease", "value": "up to 10 fold"}
    ]}
  ]
}
